Experimental data taken from the supplement of paper PMC10331698.
± gives the standard deviation of the averaged measurements.

Tests used:
Assay in all cases: level (log10 ratio to DMSO vehicle control); higher = higher biomarker level / cell amount than vehicle control
[1] = compound: OCC(F)(F)C(F)(F)C(F)(F)C(F)F [1H,1H,5H-Perfluoropentanol] (in DMSO)
Experimental: (§1)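 BioMAP Diversity Plus panel of 12 human primary cell co-culture systems (3C, 4H, LPS, SAg, BT, BF4T, BE3C, CASM3C, HDF3CGF, KF3CT, MyoF, Mphg). Compounds were added 1 h before stimulation and left for 24 h (MyoF 48 h; BT 72 h for soluble read-outs or 6 d for IgG). Biomarkers were read by ELISA, cytotoxicity by SRB, PBMC viability and proliferation by Alamar Blue. Each well value was divided by the mean of 8 DMSO control wells on the same plate and log10 transformed; duplicate blinded samples were tested at 4 concentrations.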

[2] = compound: O=S(=O)(O)CCC(F)(F)C(F)(F)C(F)(F)C(F)(F)C(F)(F)C(F)(F)C(F)(F)C(F)(F)F [8:2 Fluorotelomer sulfonic acid] (in DMSO)
Experimental: as §1

[3] = compound: O=S(=O)(O)C(F)(F)C(F)(F)OC(F)(F)C(F)(F)F [Perfluoro(2-ethoxyethane)sulfonic acid] (in DMSO)
Experimental: as §1

[4] = compound: CO[Si](C)(CCC(F)(F)C(F)(F)C(F)(F)C(F)(F)C(F)(F)C(F)(F)F)OC [Dimethoxymethyl((perfluorohexyl)ethyl)silane] (in DMSO)
Experimental: as §1

[5] = compound: CN(C(=O)C(F)(F)C(F)(F)C(F)(F)F)[Si](C)(C)C [N-Methyl-N-trimethylsilylheptafluorobutyramide] (in DMSO)
Experimental: as §1

[6] = compound: O=C(O)C(F)(F)C(F)(F)C(F)(F)OC(F)(F)F [Perfluoro(4-methoxybutanoic) acid] (in DMSO)
Experimental: as §1

[7] = compound: C=C(C)C(=O)OCCC(F)(F)C(F)(F)C(F)(F)C(F)(F)C(F)(F)C(F)(F)C(F)(F)C(F)(F)F [8:2 Fluorotelomer methacrylate] (in DMSO)
Experimental: as §1

Row | Test System | level (log10) ([1]; 6700 nM) | level (log10) ([1]; 20000 nM) | level (log10) ([1]; 60000 nM) | level (log10) ([2]; 6700 nM) | level (log10) ([2]; 20000 nM) | level (log10) ([2]; 60000 nM) | level (log10) ([3]; 6700 nM) | level (log10) ([3]; 20000 nM) | level (log10) ([3]; 60000 nM) | level (log10) ([4]; 6700 nM) | level (log10) ([4]; 20000 nM) | level (log10) ([5]; 6700 nM) | level (log10) ([5]; 20000 nM) | level (log10) ([5]; 60000 nM) | level (log10) ([6]; 6700 nM) | level (log10) ([6]; 20000 nM) | level (log10) ([6]; 60000 nM) | level (log10) ([7]; 6700 nM) | level (log10) ([7]; 20000 nM)
1 | BT:B cell Proliferation | -0.016 ± 0.0042 | 0.0015 ± 0.046 | 0.0065 ± 0.057 | 0.016 ± 0.016 | 0.0415 ± 0.005 | 0.0475 ± 0.033 | 0.011 ± 0.011 | 0.0575 ± 0.036 | 0.034 ± 0.0014 | 0.0085 ± 0.011 | 0.023 ± 0.0042 | 0.01 ± 0.014 | -0.01 ± 0.02 | -0.007 ± 0.0014 | -0.009 ± 0.034 | -0.0165 ± 0.013 | -0.006 ± 0.0099 | -0.025 ± 0.018 | 0.037 ± 0.033
2 | BT:PBMC Cytotoxicity | -0.0275 ± 0.013 | -0.038 ± 0.045 | -0.019 ± 0.042 | 0.006 ± 0.018 | 0.0115 ± 0.005 | 0.0505 ± 0.018 | 0.0245 ± 0.033 | 0.0005 ± 0.0035 | 0.056 ± 0.013 | -0.0015 ± 0.0021 | 0.023 ± 0.0028 | -0.007 ± 0.0014 | 0.0035 ± 0.022 | 0.0055 ± 0.044 | 0.0095 ± 0.0078 | -0.0025 ± 0.0064 | 0.0225 ± 0.021 | -0.0005 ± 0.0021 | 0.016 ± 0.058
3 | BT:Secreted IgG | 0.044 ± 0.02 | 0.0295 ± 0.039 | 0.0475 ± 0.028 | 0.032 ± 0.0099 | -0.014 ± 0.031 | -0.025 ± 0.014 | 0.0355 ± 0.0035 | -0.0135 ± 0.084 | -0.0095 ± 0.086 | 0.0505 ± 0.0078 | 0.021 ± 0.018 | 0.01 ± 0.011 | 0.016 ± 0.03 | 0.013 ± 0.048 | -0.0045 ± 0.03 | 0.026 ± 0.047 | -0.0125 ± 0.0064 | 0.0175 ± 0.012 | 0.028 ± 0.0085
4 | BT:sIL-2 | -0.0095 ± 0.066 | -0.0245 ± 0.0078 | 0.0145 ± 0.059 | -0.023 ± 0.073 | 0.0195 ± 0.057 | 0.009 ± 0.011 | -0.023 ± 0.0085 | -0.0935 ± 0.04 | -0.0595 ± 0.066 | -0.0455 ± 0.12 | 0.0425 ± 0.026 | -0.0665 ± 0.013 | -0.0325 ± 0.056 | 0.045 ± 0.042 | -0.013 ± 0.0028 | -0.006 ± 0.052 | 0.029 ± 0.051 | -0.006 ± 0.024 | -0.04 ± 0.064
5 | BT:sIL-6 | 0.0265 ± 0.005 | 0.0175 ± 0.015 | 0.003 ± 0.014 | 0.015 ± 0.035 | 0.0445 ± 0.015 | -0.005 ± 0.085 | 0.006 ± 0.03 | -0.029 ± 0.0085 | -0.027 ± 0.076 | -0.038 ± 0.076 | 0.0465 ± 0.14 | -0.054 ± 0.021 | -0.0635 ± 0.0035 | 0.002 ± 0.02 | 0.042 ± 0.089 | 0.0225 ± 0.071 | -0.061 ± 0.038 | 0.0115 ± 0.042 | -0.0085 ± 0.11
6 | BT:sIL-17A | -0.0225 ± 0.086 | 0.044 | -0.0225 ± 0.25 | -0.152 ± 0.057 | -0.012 ± 0.013 | -0.0805 ± 0.16 | -0.0995 ± 0.17 | -0.131 ± 0.05 | -0.148 ± 0.19 | -0.0265 ± 0.029 | -0.025 ± 0.17 | -0.0195 ± 0.073 | -0.192 ± 0.11 | 0.071 ± 0.0042 | -0.082 ± 0.0028 | -0.0755 ± 0.083 | 0.0425 ± 0.16 | 0.077 ± 0.13 | 0.041 ± 0.16
7 | BT:sIL-17F | -0.0035 ± 0.067 | -0.051 ± 0.035 | -0.013 ± 0.25 | -0.0295 ± 0.091 | 0.053 ± 0.0071 | 0.018 | -0.0315 ± 0.022 | -0.071 ± 0.031 | -0.0005 ± 0.021 | 0.074 ± 0.0014 | 0.102 ± 0.064 | -0.017 ± 0.027 | -0.008 ± 0.13 | 0.0005 ± 0.07 | -0.0085 ± 0.059 | 0.07 ± 0.017 | -0.037 ± 0.073 | 0.032 ± 0.037 | 0.1 ± 0.023
8 | BT:sTNF-alpha | -0.0315 ± 0.0092 | -0.051 ± 0.016 | -0.003 ± 0.068 | 0.006 ± 0.095 | 0 ± 0.0071 | 0.009 ± 0.034 | -0.002 ± 0.037 | -0.012 ± 0.083 | 0.029 ± 0.058 | -0.0935 ± 0.15 | 0.094 ± 0.11 | -0.014 ± 0.062 | -0.0875 ± 0.054 | 0.079 ± 0.13 | -0.028 ± 0.0042 | -0.0245 ± 0.046 | 0.0445 ± 0.016 | -0.031 ± 0.055 | -0.049 ± 0.0042
